Source: patent US20250249102A1, “CMV-HIV SPECIFIC CHIMERIC ANTIGEN RECEPTOR T CELLS” (priority 2022, published 2025)
Read-outs that look alike come from different tables or passages of the source.

What was measured:
HIV-1 BaL or HIV-1 NL4-3 [1] = details: for HIV replication: CD8+-depleted PBMCs infected with HIV-1 BaL or HIV-1 NL4-3
HIV-1 BaL or HIV-1 NL4-3 [2] = test: microbe, parasite or virus in culture; details: Human immunodeficiency virus 1, PBMC

**Q.** How did the EC50 (HIV-1 BaL or HIV-1 NL4-3 [1]) turn out when enfuvirtide was run?
**A.** 27.9 nM

**Q.** And the HIV replication (HIV-1 BaL or HIV-1 NL4-3 [1])?
**A.** prevent HIV replication

**Q.** What does the source list for `CC(C)CN(C[C@@H](O)[C@H](Cc1ccccc1)NC(=O)O[C@H]1CO[C@H]2OCC[C@H]21)S(=O)(=O)c1ccc(N)cc1` [darunavir]?
**A.** HIV replication (HIV-1 BaL or HIV-1 NL4-3 [1]): prevent HIV replication; EC50 (HIV-1 BaL or HIV-1 NL4-3 [2]): 4.3 nM
